Test results as given in EP4810484A1, “NEUROACTIVE ANDROGEN RECEPTOR MODULATOR AND USE THEREOF” (Endochem Pharmaceuticals (Beijing) Co., Ltd., priority 2023, dated 2025).

How the values were obtained:
[1] = Mouse blood-brain barrier permeation assay (LC-MS/MS of serum and brain); type: in vivo, C57BL/6J mice; settings: for concentrations of the compound detected in serum and brain (in words): 20 mg/kg intraperitoneal
Method: Mouse blood-brain barrier permeation assay
Blood was collected by decapitation from the mice (each time point/3 mice) at the following time points: 30 min, 1 h, 2 h, 3 h, 4 h, 8 h, and brain tissue and blood were harvested at 12 h, 24 h, 36 h, 48 h and 72 h. • (3) When collecting serum, heparin sodium blood collection tubes were used.
The supernatant was filtered through a 0.22 µm filter and analyzed by LC-MS/MS.

[2] = Log P (Table 1, no method described)
[3] = molecular target: T1, recombinant human androgen receptor (AR) protein (Homo sapiens, UniProt P10275); experiment: Small molecule-protein affinity (protein-ligand coupling) assay, Biacore T200 SPR; type: binding; settings: summary of Table 1
T1 construct: RPB252Hu03, Ile673-His918 with N-terminal His Tag; His tag (N); purchased CLOUD-CLONE CORP; WUHAN RPB252Hu03
T1 sequence (P10275 673-918): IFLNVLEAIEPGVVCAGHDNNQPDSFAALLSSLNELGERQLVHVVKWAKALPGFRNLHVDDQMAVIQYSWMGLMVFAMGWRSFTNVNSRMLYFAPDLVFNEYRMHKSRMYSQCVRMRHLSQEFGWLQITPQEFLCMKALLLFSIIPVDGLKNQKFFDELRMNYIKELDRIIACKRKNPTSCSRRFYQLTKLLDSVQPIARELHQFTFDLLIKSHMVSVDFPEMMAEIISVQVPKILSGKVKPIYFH

androgen receptors = molecular target: T2, androgen receptors (Homo sapiens, UniProt P10275); experiment: Androgen Receptor Reporter Gene Assay in plasmid-transfected HEK293T cells; type: cell-based; settings: HEK-293T
T2 construct: expressed in transfected cells; host or cells: HEK293T (ATCC, CRL-3216)
T2 sequence (P10275 1-920): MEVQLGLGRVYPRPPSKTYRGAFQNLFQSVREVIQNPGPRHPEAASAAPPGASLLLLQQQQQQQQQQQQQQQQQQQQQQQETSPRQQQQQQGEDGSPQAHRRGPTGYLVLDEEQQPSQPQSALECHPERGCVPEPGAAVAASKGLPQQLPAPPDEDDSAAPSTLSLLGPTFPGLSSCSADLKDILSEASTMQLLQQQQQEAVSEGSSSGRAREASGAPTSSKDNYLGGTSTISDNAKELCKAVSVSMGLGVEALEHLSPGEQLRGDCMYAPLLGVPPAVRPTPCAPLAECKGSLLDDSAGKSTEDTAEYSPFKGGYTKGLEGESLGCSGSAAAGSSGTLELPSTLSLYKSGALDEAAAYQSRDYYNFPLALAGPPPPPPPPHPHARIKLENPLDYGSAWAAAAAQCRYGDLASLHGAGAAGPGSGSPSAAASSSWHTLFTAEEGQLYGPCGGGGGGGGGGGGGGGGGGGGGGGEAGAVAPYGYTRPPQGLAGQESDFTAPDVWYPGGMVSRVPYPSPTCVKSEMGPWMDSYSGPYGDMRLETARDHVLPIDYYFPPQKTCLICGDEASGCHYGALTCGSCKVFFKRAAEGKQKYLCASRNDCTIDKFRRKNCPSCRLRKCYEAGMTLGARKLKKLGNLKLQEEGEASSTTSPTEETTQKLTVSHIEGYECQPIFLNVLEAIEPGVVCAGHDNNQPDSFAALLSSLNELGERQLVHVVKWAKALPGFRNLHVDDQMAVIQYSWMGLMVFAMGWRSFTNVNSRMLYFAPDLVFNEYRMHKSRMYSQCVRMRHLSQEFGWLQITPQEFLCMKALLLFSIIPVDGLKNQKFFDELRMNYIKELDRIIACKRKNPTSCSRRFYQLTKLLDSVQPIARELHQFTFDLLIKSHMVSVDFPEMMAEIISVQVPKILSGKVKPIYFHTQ

Which results are given for CC(=O)O[C@@](C)(COc1ccc(C#N)cc1)C(=O)Nc1cnc(C#N)c(C(F)(F)F)c1 [Example 24, (S)-1-((6-cyano-5-(trifluoromethyl)pyridin-3-yl)amino)-3-(4-cyanophenoxy)-2-methyl-1-oxopropan-2-yl acetate]?
bioavailability in the brain ([1]; compared with the compound of Example 3): significantly improved; logP [2]: 2.76

With C[C@@](COc1ccc(C#N)nc1)(OC(=O)c1cccnc1)C(=O)Nc1ccc(C#N)c(C(F)(F)F)c1 [Example 11, (S)-1-((4-cyano-3-(trifluoromethyl)phenyl)amino)-3-((6-cyanopyridin-3-yl)oxy)-2-methyl-1-oxopropan-2-yl nicotinate] as the molecule, how does the logP [2] read?
Its logP is 3.32.

With C[C@@](COc1ccc(C#N)cc1)(OC(=O)c1cccnc1)C(=O)Nc1cnc(C#N)c(C(F)(F)F)c1 [Example 13, (S)-1-((6-cyano-5-(trifluoromethyl)pyridin-3-yl)amino)-3-(4-cyanophenoxy)-2-methyl-1-oxopropan-2-yl nicotinate] as the molecule, how does the “concentrations of the compound detected in serum and brain (in words)” value (“concentrations of the compound detected” for short) [1] read?
The value was “lower concentrations of the compound and higher concentrations of metabolites were detected in serum and brain”.

What about the logP [2] of the same molecule?
The logP was 3.32.

For CCC(=O)O[C@@](C)(COc1ccc(C#N)cc1)C(=O)Nc1cnc(C#N)c(C(F)(F)F)c1 [Example 28, (S)-1-((6-cyano-5-(trifluoromethyl)pyridin-3-yl)amino)-3-(4-cyanophenoxy)-2-methyl-1-oxopropan-2-yl-propionate], which “concentrations of the compound detected” value [1] is on record?
The value was “lower concentrations of the compound and higher concentrations of metabolites were detected in serum and brain”.

With CN1CCC(C(=O)O[C@@](C)(COc2ccc(C#N)cc2)C(=O)Nc2cnc(C#N)c(C(F)(F)F)c2)CC1 [Example 19, (S)-1-((6-cyano-5-(trifluoromethyl)pyridin-3-yl)amino)-3-(4-cyanophenoxy)-2-methyl-1-oxopropyl-2-yl-1-methylpiperidine-4-carboxylate] as the molecule, how does the logP [2] read?
Its logP is 3.2.

With C[C@](O)(COc1ccc(C#N)c(F)c1)C(=O)Nc1cnc(C#N)c(C(F)(F)F)c1 [Example 8, (S)-3-(4-cyano-3-fluorophenoxy)-N-(6-cyano-5-(trifluoromethyl)pyridin-3-yl)-2-hydroxy-2-methylpropionamide] as the molecule, how does the “concentrations of the compound detected” value [1] read?
Its value is “certain concentrations of the compound were detected in serum and brain up to 72 h after administration”.

For CC(C)C(=O)O[C@@](C)(COc1ccc(C#N)cc1)C(=O)Nc1cnc(C#N)c(C(F)(F)F)c1 [Example 21, (S)-1-((6-cyano-5-(trifluoromethyl)pyridin-3-yl)amino)-3-(4-cyanophenoxy)-2-methyl-1-oxopropan-2-yl isobutyrate], which “concentrations of the compound detected” value [1] is on record?
The value was “lower concentrations of the compound and higher concentrations of metabolites were detected in serum and brain”.

With CN(C)CCC(=O)O[C@@](C)(COc1ccc(C#N)cc1)C(=O)Nc1cnc(C#N)c(C(F)(F)F)c1 [Example 14, (S)-1-((6-cyano-5-(trifluoromethyl)pyridin-3-yl)amino)-3-(4-cyanophenoxy)-2-methyl-1-oxopropyl-2-yl 3-(dimethylamino)propanate] as the molecule, how does the logP [2] read?
Its logP is 2.86.

For CCCS(=O)(=O)O[C@@](C)(COc1ccc(C#N)cc1)C(=O)Nc1cnc(C#N)c(C(F)(F)F)c1 [Example 17, (S)-1-((6-cyano-5-(trifluoromethyl)pyridin-3-yl)amino)-3-(4-cyanophenoxy)-2-methyl-1-oxopropan-2-yl propane-1-sulfonate], which logP [2] is on record?
The logP was 3.07.

Which logP [2] does the source give for CN1C=CCC(C(=O)O[C@@](C)(COc2ccc(C#N)cc2)C(=O)Nc2ccc(C#N)c(C(F)(F)F)c2)=C1 [Example 35, (S)-1-((4-cyano-3-(trifluoromethyl)phenyl)amino)-3-(4-cyanophenoxy)-2-methyl-1-oxopropan-2-yl 1-methyl-1,4-dihydropyridine-3-carboxylate] here?
The logP was 4.45.

With C[C@](O)(Cn1cnc(C(F)(F)F)cc1=O)C(=O)Nc1cnc(C#N)c(C(F)(F)F)c1 [Example 1] as the molecule, how does the logP [2] read?
The logP was 2.62.

With C[C@](O)(Cn1cnc(C(F)(F)F)cc1=O)C(=O)Nc1ccc(C#N)c(C(F)(F)F)c1 [Example 2] as the molecule, how does the logP [2] read?
Its logP is 3.53.

With C[C@](O)(COc1ccc(C#N)nc1)C(=O)Nc1cnc(C#N)c(C(F)(F)F)c1 [Example 5, (S)-N-(6-cyano-5-(trifluoromethyl)pyridin-3-yl)-3-((6-cyanopyridin-3-yl)oxy)-2-hydroxy-2-methylpropionamide] as the molecule, how does the logP [2] read?
Its logP is 1.61.

Which results are given for C[C@](O)(COc1ccc(C#N)cc1)C(=O)Nc1cnc(C#N)c(C(F)(F)F)c1 [Example 3, (S)-N-(6-cyano-5-(trifluoromethyl)pyridin-3-yl)-3-(4-cyanophenoxy)-2-hydroxy-2-methylpropionamide]?
concentrations of the compound detected in serum and brain (in words) [1]: certain concentrations of the compound were detected in serum and brain up to 72 h after administration; logP [2]: 2.53

Which “concentrations of the compound detected” value [1] does the source give for C[C@@](COc1ccc(C#N)cc1)(OC(=O)CCCC[C@@H]1CCSS1)C(=O)Nc1cnc(C#N)c(C(F)(F)F)c1 [Example 15, (S)-1-((6-cyano-5-(trifluoromethyl)pyridin-3-yl)amino)-3-(4-cyanophenoxy)-2-methyl-1-oxopropyl-2-yl 5-((R)-1,2-dithiolan-3-yl) pentanoate] here?
Its value is “no effective concentration of the compound was detected in serum and brain”.

Which “affinity to the androgen receptor proteins (in words)” value [3] does the source give for C[C@](O)(COc1ccc(C#N)cc1)C(=O)Nc1ccc(C#N)c(C(F)(F)F)c1 [Ostarine, reference compound] here?
The value was “no binding affinity”.

What about the Emax (androgen receptors) of the same molecule?
The Emax was 78.4%.

What about the logP [2] of the same molecule?
Its logP is 3.49.

Which results are given for C[C@@](COc1ccc(C#N)cc1)(OC(=O)c1ccccc1)C(=O)Nc1cnc(C#N)c(C(F)(F)F)c1 [Example 26, (S)-1-((6-cyano-5-(trifluoromethyl)pyridin-3-yl)amino)-3-(4-cyanophenoxy)-2-methyl-1-oxopropan-2-yl benzoate]?
affinity to the androgen receptor proteins (in words) [3]: strong affinity; concentrations of the compound detected in serum and brain (in words) [1]: lower concentrations of the compound and higher concentrations of metabolites were detected in serum and brain; logP [2]: 4.65

For C[C@](O)(COc1ccc(C#N)nc1)C(=O)Nc1ccc(C#N)c(C(F)(F)F)c1 [Example 4, (S)-N-(4-cyano-3-(trifluoromethyl)phenyl)-3-((6-cyanopyridin-3-yl)oxy)-2-hydroxy-2-methylpropionamide], which logP [2] is on record?
The logP was 2.53.
